# Results taken from ChEMBL document CHEMBL1201862, “PubChem BioAssay data set” (2004).
#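 All cell lines were grown in 96-well plates and treated with compound for 48 hours. GI50: concentration for 50% inhibition of growth.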 The source made the active and inactive calls. Cut-off read from the data, not from the text of the source: active = GI50 up to about 1.1 µM and inactive = higher.
# How the values were obtained:
# Experiment in all cases: NCI anticancer screen, dose series, 48 h
# 786-0 = test system: 786-0
# A498 = test system: A498
# A549 = test system: A549
# ACHN = test system: ACHN
# CAKI-1 = test system: CAKI-1
# CCRF-CEM = test system: CCRF-CEM
# COLO 205 = test system: COLO 205
# DLD-1 = test system: DLD-1
# DMS-114 = test system: DMS-114
# DMS-273 = test system: DMS-273
# EKVX = test system: EKVX
# HCC 2998 = test system: HCC 2998
# HCT-116 = test system: HCT-116
# HCT-15 = test system: HCT-15
# HL-60 = test system: HL-60
# HOP-18 = test system: HOP-18
# HOP-62 = test system: HOP-62
# HOP-92 = test system: HOP-92
# HT-29 = test system: HT-29
# IGROV-1 = test system: IGROV-1
# K562 = test system: K562
# KM-20L2 = test system: KM-20L2
# KM12 = test system: KM12
# LXFL 529 = test system: LXFL 529
# M14 = test system: M14
# M19-MEL = test system: M19-MEL
# MOLT-4 = test system: MOLT-4
# Malme-3M = test system: Malme-3M
# NCI-H226 = test system: NCI-H226
# NCI-H23 = test system: NCI-H23
# NCI-H460 = test system: NCI-H460
# OVCAR-3 = test system: OVCAR-3
# OVCAR-4 = test system: OVCAR-4
# OVCAR-5 = test system: OVCAR-5
# OVCAR-8 = test system: OVCAR-8
# RPMI-8226 = test system: RPMI-8226
# RXF 631 = test system: RXF 631
# SF-268 = test system: SF-268
# SF-295 = test system: SF-295
# SF-539 = test system: SF-539
# SK-MEL-28 = test system: SK-MEL-28
# SK-MEL-5 = test system: SK-MEL-5
# SK-OV-3 = test system: SK-OV-3
# SN12C = test system: SN12C
# SNB-19 = test system: SNB-19
# SNB-75 = test system: SNB-75
# SNB-78 = test system: SNB-78
# SW-620 = test system: SW-620
# TK-10 = test system: TK-10
# U-251 = test system: U-251
# UACC-257 = test system: UACC-257
# UACC-62 = test system: UACC-62
# UO-31 = test system: UO-31
# NCI-H522 = test system: NCI-H522
# RXF 393 = test system: RXF 393
# SK-MEL-2 = test system: SK-MEL-2
# SR = test system: SR
# XF498 = test system: XF498
smiles,measurement,setting,value
CCOC(=O)/C(C#N)=C(O)/C(=C\c1ccc(Br)cc1)NC(=O)c1ccccc1,GI50,786-0,> 100 µM (inactive)
same,GI50,A498,> 100 µM (inactive)
same,GI50,A549,> 100 µM (inactive)
same,GI50,ACHN,> 100 µM (inactive)
same,GI50,CAKI-1,> 100 µM (inactive)
same,GI50,CCRF-CEM,> 100 µM (inactive)
same,GI50,COLO 205,> 100 µM (inactive)
same,GI50,DLD-1,> 100 µM (inactive)
same,GI50,DMS-114,> 100 µM (inactive)
same,GI50,DMS-273,> 100 µM (inactive)
same,GI50,EKVX,> 100 µM (inactive)
same,GI50,HCC 2998,> 100 µM (inactive)
same,GI50,HCT-116,16.4 µM (inactive)
same,GI50,HCT-15,37.4 µM
same,GI50,HL-60,> 100 µM (inactive)
same,GI50,HOP-18,> 100 µM (inactive)
same,GI50,HOP-62,> 100 µM (inactive)
same,GI50,HOP-92,> 100 µM (inactive)
same,GI50,HT-29,> 100 µM (inactive)
same,GI50,IGROV-1,> 100 µM (inactive)
same,GI50,K562,> 100 µM (inactive)
same,GI50,KM-20L2,> 100 µM (inactive)
same,GI50,KM12,> 100 µM (inactive)
same,GI50,LXFL 529,> 100 µM (inactive)
same,GI50,M14,> 100 µM (inactive)
same,GI50,M19-MEL,> 100 µM (inactive)
same,GI50,MOLT-4,> 100 µM (inactive)
same,GI50,Malme-3M,> 100 µM (inactive)
same,GI50,NCI-H226,30.4 µM (inactive)
same,GI50,NCI-H23,> 100 µM (inactive)
same,GI50,NCI-H460,> 100 µM (inactive)
same,GI50,OVCAR-3,> 100 µM (inactive)
same,GI50,OVCAR-4,> 100 µM (inactive)
same,GI50,OVCAR-5,> 100 µM (inactive)
same,GI50,OVCAR-8,> 100 µM (inactive)
same,GI50,RPMI-8226,22.4 µM (inactive)
same,GI50,RXF 631,> 100 µM (inactive)
same,GI50,SF-268,> 100 µM (inactive)
same,GI50,SF-295,> 100 µM (inactive)
same,GI50,SF-539,> 100 µM (inactive)
same,GI50,SK-MEL-28,> 100 µM (inactive)
same,GI50,SK-MEL-5,> 100 µM (inactive)
same,GI50,SK-OV-3,> 100 µM (inactive)
same,GI50,SN12C,> 100 µM (inactive)
same,GI50,SNB-19,> 100 µM (inactive)
same,GI50,SNB-75,> 100 µM (inactive)
same,GI50,SNB-78,> 100 µM (inactive)
same,GI50,SW-620,19.2 µM (inactive)
same,GI50,TK-10,> 100 µM (inactive)
same,GI50,U-251,> 100 µM (inactive)
same,GI50,UACC-257,> 100 µM (inactive)
same,GI50,UACC-62,> 100 µM (inactive)
same,GI50,UO-31,> 100 µM (inactive)
Cc1cccc(NC(=O)c2c(N)[n+]([O-])c3ccccc3[n+]2[O-])c1,GI50,786-0,5.02 µM (inactive)
same,GI50,A498,16.1 µM (inactive)
same,GI50,A549,16.1 µM (inactive)
same,GI50,ACHN,16.1 µM (inactive)
same,GI50,CAKI-1,13.9 µM (inactive)
same,GI50,CCRF-CEM,4.68 µM (inactive)
same,GI50,COLO 205,13.3 µM (inactive)
same,GI50,DLD-1,11.7 µM (inactive)
same,GI50,DMS-273,9.51 µM (inactive)
same,GI50,EKVX,16.9 µM (inactive)
same,GI50,HCT-116,7.69 µM (inactive)
same,GI50,HL-60,8.73 µM (inactive)
same,GI50,HOP-18,18.2 µM (inactive)
same,GI50,HOP-62,17.1 µM (inactive)
same,GI50,HOP-92,15.2 µM (inactive)
same,GI50,HT-29,13.7 µM (inactive)
same,GI50,IGROV-1,5.11 µM (inactive)
same,GI50,K562,5.68 µM (inactive)
same,GI50,KM-20L2,16.6 µM (inactive)
same,GI50,KM12,14.9 µM (inactive)
same,GI50,LXFL 529,11 µM (inactive)
same,GI50,M14,12 µM (inactive)
same,GI50,M19-MEL,8.97 µM (inactive)
same,GI50,MOLT-4,4.89 µM (inactive)
same,GI50,Malme-3M,12.7 µM (inactive)
same,GI50,NCI-H226,5.66 µM (inactive)
same,GI50,NCI-H23,9.68 µM (inactive)
same,GI50,NCI-H460,12.9 µM (inactive)
same,GI50,NCI-H522,6.01 µM (inactive)
same,GI50,OVCAR-3,15.6 µM (inactive)
same,GI50,OVCAR-4,9.98 µM (inactive)
same,GI50,OVCAR-5,26.7 µM (inactive)
same,GI50,OVCAR-8,10.2 µM (inactive)
same,GI50,RXF 393,4.03 µM (inactive)
same,GI50,RXF 631,1.77 µM (inactive)
same,GI50,SF-268,7.28 µM (inactive)
same,GI50,SF-295,10.9 µM (inactive)
same,GI50,SF-539,5.05 µM (inactive)
same,GI50,SK-MEL-28,8.05 µM (inactive)
same,GI50,SK-MEL-2,7.76 µM (inactive)
same,GI50,SK-MEL-5,5.53 µM (inactive)
same,GI50,SK-OV-3,21.1 µM (inactive)
same,GI50,SN12C,4.85 µM (inactive)
same,GI50,SNB-19,15.8 µM (inactive)
same,GI50,SNB-75,13 µM (inactive)
same,GI50,SNB-78,11.9 µM (inactive)
same,GI50,SR,10.9 µM (inactive)
same,GI50,SW-620,8.38 µM (inactive)
same,GI50,U-251,1.78 µM (inactive)
same,GI50,UACC-257,11.3 µM (inactive)
same,GI50,UO-31,18.4 µM (inactive)
same,GI50,XF498,11.4 µM (inactive)
